# Source: ChEMBL document CHEMBL5244229, “Thiazole-containing compounds as therapeutic targets for cancer therapy” (Eur J Med Chem, 2020)
# pIC50: −log10 of the molar value.
# Experiments:
# SW-620 = experiment: Antiproliferative activity against human SW620 cells assessed as reduction in cell viability incubated for 4 days by MTT assay; type: functional, cell-based; conditions: SW-620, 96 h
# HepG2 [1] = experiment: Antiproliferative activity against human HepG2 cells assessed as reduction in cell viability incubated for 4 days by MTT assay; type: functional, cell-based; conditions: HepG2, 96 h
# [2] = Antiproliferative activity against human SK-RC-52 cells assessed as reduction in cell viability incubated for 4 days by MTT assay; type: functional, cell-based; conditions: SK-RC-52, 96 h
# A-431 = experiment: Antiproliferative activity against human A-431 cells assessed as reduction in cell viability incubated for 4 days by MTT assay; type: functional, cell-based; conditions: A-431, 96 h
# A549 [3] = experiment: Antiproliferative activity against human A549 cells assessed as reduction in cell viability incubated for 4 days by MTT assay; type: functional, cell-based; conditions: A549, 96 h
# [4] = Anticancer activity against human LNCaP/AR cells; type: functional, cell-based
# HeLa [5] = experiment: Antiproliferative activity against human HeLa cells assessed as reduction in cell viability; type: functional, cell-based
# HepG2 [6] = experiment: Antiproliferative activity against human HepG2 cells assessed as reduction in cell viability; type: functional, cell-based
# Hs-578T = experiment: Antiproliferative activity against human Hs-578T cells assessed as reduction in cell viability; type: functional, cell-based
# MV4-11 [7] = experiment: Anticancer activity against human MV4-11 cells; type: functional, cell-based
# HCT-116 [8] = experiment: Antiproliferative activity against human HCT-116 cells assessed as reduction in cell viability incubated for 24 hrs by Celltiter-Glo cell viability assay; type: functional, cell-based; conditions: HCT-116, 24 h
# MCF7 [9] = experiment: Antiproliferative activity against human MCF7 cells assessed as reduction in cell viability incubated for 24 hrs by Celltiter-Glo cell viability assay; type: functional, cell-based; conditions: MCF7, 24 h
# MV4-11 [10] = experiment: Antiproliferative activity against human MV4-11 cells assessed as reduction in cell viability incubated for 24 hrs by Celltiter-Glo cell viability assay; type: functional, cell-based; conditions: MV4-11, 24 h
# HCT-116 [11] = experiment: Anticancer activity against human HCT-116 cells; type: functional, cell-based
# BALB/3T3 = experiment: Antiproliferative activity against mouse BALB/3T3 cells assessed as reduction in cell viability incubated for 24 hrs by Celltiter-Glo cell viability assay; type: functional, cell-based; conditions: BALB/3T3, 24 h
# A549 [12] = experiment: Anticancer activity against human A549 cells assessed as reduction of cell viability at 100 micromol relative to control; type: functional; conditions: dose 100 µmol
# A549 [13] = experiment: Anticancer activity against human A549 cells assessed as reduction of cell viability at 25 micromol relative to control; type: functional; conditions: dose 25 µmol
# PC-3 [14] = experiment: Cytotoxicity against human PC-3 cells; type: functional
# PC-3 [15] = experiment: Anticancer activity against human PC-3 cells; type: functional, cell-based
# NCI-H460 [16] = experiment: Antitumor activity against human NCI-H460 cells; type: functional, cell-based
# NCI-H460 [17] = experiment: Potency index, ratio of MKT-077 IC50 to test compound IC50 for antitumor activity against human NCI-H460 cells; type: functional
# HepG2 [18] = experiment: Anticancer activity against human HepG2 cells assessed as inhibition of cell proliferation at 25 uM measured after 24 hrs by MTT assay; type: functional, cell-based; conditions: HepG2, 24 h
# MCF7 [19] = experiment: Induction of apoptosis in human MCF7 cells assessed as dead cells at 10 uM measured after 6 hrs by annexin V-FITC/propidium iodide staining based flow cytometry analysis (reference value: 5.14+/-0.44%); type: functional
# Ca-Ski = experiment: Anticancer activity against human Ca-Ski cells assessed as inhibition of cell growth; type: functional, cell-based
# SK-NEP-1 = experiment: Anticancer activity against human SK-NEP-1 cells assessed as inhibition of cell growth; type: functional, cell-based
# A549 [20] = experiment: Cytotoxicity against human A549 cells assessed as inhibition of cell growth by MTT assay; type: functional, cell-based
# HCT-116 [21] = experiment: Antiproliferative activity against human HCT-116 cells assessed as cell growth inhibition; type: functional
# Colon 26 [22] = experiment: Cytotoxicity against mouse Colon 26 cells assessed as inhibition of cell growth; type: functional, cell-based
# Colon 26 [23] = experiment: Antitumor activity against mouse Colon 26 cells xenografted in mouse assessed as tumor suppression rate at 40 mg/kg, po; type: functional
# Tubulin = Tubulin (Bos taurus, UniProt Q6B856+Q862L2+Q862F3); experiment: Antitubulin activity against bovine brain tubulin polymerization by spectrophotometric method
# [24] = Cytotoxicity against human HPDE cells assessed as induction of cell death at 5.51 uM; type: functional
# HCT-8 = experiment: Anticancer activity against human HCT-8 cells at 5 microg/ml relative to control; type: functional; conditions: dose 5 µg/ml
# A549 [25] = experiment: Antiproliferative activity against human A549 cells relative to control; type: functional
# A549 [26] = experiment: Antiproliferative activity against human A549 cells assessed as reduction in cell viability; type: functional, cell-based
# HepG2 [27] = experiment: Cytotoxicity against human HepG2 cells assessed as reduction in cell viability at 200 uM incubated for 24 hrs by MTT assay; type: functional, cell-based; conditions: HepG2, 24 h
# HepG2 [28] = experiment: Cytotoxicity against human HepG2 cells assessed as reduction in cell viability at 200 uM incubated for 48 hrs by MTT assay; type: functional
# HepG2 [29] = experiment: Anticancer activity against human HepG2 cells assessed as inhibition of cell proliferation at 50 uM measured after 24 hrs by MTT assay; type: functional, cell-based; conditions: HepG2, 24 h
# [30] = Anticancer activity against human Colon carcinoma cell; type: functional
# Ovarian carcinoma cell = experiment: Anticancer activity against human Ovarian carcinoma cell; type: functional
# [31] = Anticancer activity against human Melanoma tumor cell line; type: functional
# SF-268 = experiment: Cytotoxicity against human SF-268 cells assessed as inhibition of cell growth; type: functional
# NCI-H460 [32] = experiment: Cytotoxicity against human NCI-H460 cells assessed as inhibition of cell growth; type: functional
# MCF7 [33] = experiment: Cytotoxicity against human MCF7 cells assessed as inhibition of cell growth; type: functional
# Cytochrome P450 = experiment: Inhibition of CYP450 in human liver microsomes; type: ADME, Microsome
# MDA-MB-231 [34] = experiment: Antiproliferative activity against human MDA-MB-231 cell line assessed as cell growth inhibition by MTT assay; type: functional, cell-based
# HeLa [35] = experiment: Antiproliferative activity against human HeLa cells assessed as cell growth inhibition by MTT assay; type: functional, cell-based
# HeLa [36] = experiment: Antiproliferative activity against human HeLa cells assessed as reduction in cell growth after 72 hrs; type: functional, cell-based
# MDA-MB-231 [37] = experiment: Antiproliferative activity against human MDA-MB-231 cells assessed as reduction in cell growth after 72 hrs; type: functional, cell-based; conditions: MDA-MB-231, 72 h
# NCI-H460 [38] = experiment: Cytotoxicity against human NCI-H460 cells; type: functional, cell-based
# OVCAR-4 = experiment: Cytotoxicity against human OVCAR-4 cells; type: functional
# OVCAR-5 = experiment: Cytotoxicity against human OVCAR-5 cells; type: functional
# MCF7 [39] = experiment: Cytotoxicity against human MCF7 cells; type: functional, cell-based
# IGROV-1 = experiment: Cytotoxicity against human IGROV-1 cells; type: functional
# NCI-H226 = experiment: Cytotoxicity against human NCI-H226 cells; type: functional
# HCC 2998 = experiment: Cytotoxicity against human HCC 2998 cells; type: functional
# [40] = Antiproliferative activity against human HLF cells; type: functional
# HEK293 = experiment: Antiproliferative activity against human HEK293 cells; type: functional
# A549 [41] = experiment: Antiproliferative activity against human A549 cells; type: functional, cell-based
# HCT-116 [42] = experiment: Antiproliferative activity against human HCT-116 cells assessed as reduction in cell viability; type: functional, cell-based
smiles,measurement,setting,value
O=C(CCl)Nc1ccc2nc(SCC(=O)Nc3ccc(Br)cn3)sc2c1,pIC50,SW-620,8.37
same,pIC50,HepG2 [1],7.32
same,pIC50,[2],8.92
same,pIC50,A-431,7.70
same,pIC50,A549 [3],7.36
CC(=O)c1cccc(-c2csc(N3CCOCC3)n2)c1,pIC50,[4],6.42
CNc1nc(CC(=O)N/N=C/c2coc3ccccc3c2=O)cs1,pIC50,HeLa [5],6.08
same,pIC50,HepG2 [6],5.29
same,pIC50,Hs-578T,5.31
O=S(=O)(Nc1ccc(-c2csc(N/N=C/c3ccc(N(CCCl)CCCl)cc3)n2)cc1)c1c(F)c(F)c(F)c(F)c1F,pIC50,MV4-11 [7],5.66
same,IC50,HCT-116 [8],3.02 µg/mL
same,IC50,MCF7 [9],3.42 µg/mL
same,IC50,MV4-11 [10],2.17 µg/mL
same,IC50,HCT-116 [11],3.02 µg/mL
same,IC50,BALB/3T3,3.2 µg/mL
c1ccc(Nc2nc3ccc4cn[nH]c4c3s2)cc1,% viability reduction,A549 [12],78.8%
same,% viability reduction,A549 [13],72.1%
Cc1c(-c2csc(N)n2)sc2sc(-c3csc(N)n3)c(-c3ccccc3)c12,Activity,PC-3 [14],>30%
same,pIC50,PC-3 [15],4.62
CCN1C(=O)/C(=C2\Sc3ccccc3N2C)S/C1=N\[n+]1cccc2ccccc21.[I-],pIC50,NCI-H460 [16],8.22
same,Ratio IC50,NCI-H460 [17],216.7
Cc1ccc(C2NC(=S)Nc3nc(Nc4ccc(S(N)(=O)=O)cc4)sc32)cc1 (centres undefined),pIC50,HepG2 [18],4.37
COc1ccc(-c2nn(-c3ccccc3)cc2/C=N/Nc2nc(-c3ccc(Cl)cc3)cs2)cc1,Activity,MCF7 [19],25.61%
CO[C@@H]1C[C@H](C[C@@H](C)[C@@H](OC(=O)C2CCCCN2C)C(C)C)CC[C@H]1OCC/N=c1\sc2cc(Cl)ccc2n1C (some centres undefined),pIC50,Ca-Ski,5.08
same,pIC50,SK-NEP-1,5.02
COC(=O)Nc1nc2cc(C(=O)c3cccs3)ccc2[nH]1 [NOCODAZOLE],pIC50,A549 [20],5.74
Clc1nccc2c(-c3csc(-c4c[nH]c5ncc(Br)cc45)n3)c[nH]c12,GI50,HCT-116 [21],2350 nM
COc1ccc(C2SC(N)=NC2c2cc(OC)c(OC)c(OC)c2)cc1N (centres undefined),pIC50,Colon 26 [22],7.24
same,Activity,Colon 26 [23],75%
same,IC50,Tubulin,1000 nM
C/C(=N/Nc1nc(-c2cc3ccccc3oc2=O)cs1)c1cc2ccccc2oc1=O,Activity,[24],50%
Cc1cc(Cl)ccc1NC(=O)c1sc(-c2ccccc2Cl)nc1C(F)(F)F,Activity,HCT-8,40%
same,Activity,A549 [25],48%
COc1ccc(-c2csc(Nc3ccc(OC)cc3OC)n2)cc1,pIC50,A549 [26],6.07
c1ccc2cc(-c3csc(N4CCCC4)n3)ccc2c1,pIC50,HepG2 [27],5.30
CC1CCN(c2nc(-c3ccc4ccccc4c3)cs2)CC1,Activity,HepG2 [28],57%
NS(=O)(=O)c1ccc(N2C(=O)CSC2c2ccc([N+](=O)[O-])cc2)cc1 (centres undefined),pIC50,HepG2 [29],4.34
Cc1nn2c(SCC(=O)Nc3nccs3)nc3ccccc3c2nc1=O,GI50,[30],450 nM
same,GI50,Ovarian carcinoma cell,250 nM
same,GI50,[31],480 nM
C/C(=N/NC(=O)c1sc(=S)n(-c2ccccc2)c1N)c1cccnc1,GI50,SF-268,94 nM
same,GI50,NCI-H460 [32],94 nM
same,GI50,MCF7 [33],42.8 nM
Cc1ncc(C2=CCC3C4CC=C5CC(O)CCC5(C)C4CCC23C)s1 (centres undefined),inhibition (INH),Cytochrome P450,72.1%
Cc1csc(N/N=C/c2ccccc2)n1,IC50,MDA-MB-231 [34],3.92 µg/mL
same,IC50,HeLa [35],11.4 µg/mL
same,IC50,HeLa [36],11.4 µg/mL
same,IC50,MDA-MB-231 [37],3.92 µg/mL
Cc1cc(-c2nc3cc(F)ccc3s2)ccc1N,GI50,NCI-H460 [38],< 10 nM
same,GI50,OVCAR-4,< 100 nM
same,GI50,OVCAR-5,< 100 nM
same,GI50,MCF7 [39],< 100 nM
same,GI50,IGROV-1,< 10 nM
same,GI50,NCI-H226,< 10 nM
same,GI50,HCC 2998,< 10 nM
CCCCCCCC(=O)SCC/C=C/[C@@H]1CC(=O)NCc2nc(cs2)C2=N[C@@](C)(CS2)C(=O)N[C@@H](c2ccc(O)cc2)C(=O)O1,GI50,[40],> 100000 nM
same,GI50,HEK293,> 100000 nM
same,GI50,A549 [41],1460 nM
same,pIC50,HCT-116 [42],6.41
